Measurements published in patent publication US20170027172A1, “USE OF SUBSTITUTE OXO TETRAHYDROQUINOLINE SULFONAMIDES OR SALTS THEREOF FOR RAISING STRESS TOLERANCE OF PLANTS” (BAYER CROPSCIENCE AKTIENGESELLSCHAFT, priority 2014, published 2017).

Legend:
Triticum aestivum [1] = test: Drought stress greenhouse test Part A, visual scoring vs stressed control plants; type: in vivo; design: key: 0: no effect; 10: slight positive effect; 20: clear positive effect; 30: strong positive effect; conditions: average score of 3 pots
Description: (§1) Seeds of monocotyledonous and dicotyledonous crop plants were sown in sandy loam in plastic pots, covered with soil or sand and cultivated in a greenhouse under good growth conditions. The trial plants were treated at the early leaf stage (BBCH10-BBCH13). To assure uniform water supply before commencement of stress, the potted plants were supplied with water by dam irrigation prior to substance application.
(§2) The inventive compounds formulated in the form of wettable powders (WP) were sprayed onto the green parts of the plants as an aqueous suspension at an equivalent water application rate of 600 l/ha with addition of 0.2% wetting agent (e.g. agrotin). Substance application was followed immediately by stress treatment of the plants.
(§3) Drought stress was induced by gradual drying out under the following conditions:
“Day”: 14 hours with illumination at ˜26-30° C. “Night”: 10 hours without illumination at ˜18-20° C.
(§4) The duration of the respective stress phases was guided mainly by the condition of the stressed control plants. It was ended (by re-irrigating and transfer to a greenhouse with good growth conditions) as soon as irreversible damage was observed on the stressed control plants.
(§5) The end of the stress phase was followed by an about 4-7-day recovery phase, during which the plants were once again kept under good growth conditions in a greenhouse. The duration of the recovery phase was guided mainly by when the trial plants had attained a state which enabled visual scoring of potential effects, and was therefore variable.
(§6) Once this juncture had been reached, the appearance of the plants treated with test substances was recorded in comparison to the stressed control plants by the following categories:
In order to rule out any influence on the effects observed by any fungicidal or insecticidal action of the test compounds, it was additionally ensured that the tests proceeded without fungal infection or insect infestation.
In each test, for each crop and dosage, plants in 3 pots were treated and evaluated separately. The values reported in Tables A-1 to A-2 below for the effects obtained are averages from the scores obtained.
(§7) BRSNS=Brassica napus TRZAS=Triticum aestivum

Triticum aestivum [2] = test: Drought stress greenhouse test Part C, visual scoring vs stressed control plants; type: in vivo; conditions: efficacy range of 3-4 pots
Description: Seeds of monocotyledonous and dicotyledonous crop plants were sown in sandy loam in plastic or wood-fiber pots, covered with soil or sand and cultivated in a greenhouse under good growth conditions. The trial plants were treated at the early leaf stage (BBCH10-BBCH13). To assure uniform water supply before commencement of stress, the potted plants were supplied with water by dam irrigation prior to substance application. The inventive compounds were first formulated as wettable powders (WP) or dissolved in a solvent mixture. The further dilution was effected with water supplemented with 0.2% wetting agent (e.g. agrotin). The finished spray liquor was sprayed onto the green parts of the plant at an equivalent water application rate of 600 l/ha. Substance application was followed immediately by stress treatment of the plants. For this purpose, the wood-fiber pots were transferred in plastic inserts in order to prevent them from subsequently drying out too quickly. Drought stress was induced by gradual drying out under the following conditions: “Day”: 14 hours with illumination at 26-30° C. “Night”: 10 hours without illumination at 18-20° C. The duration of the respective stress phases was guided mainly by the condition of the stressed control plants. It was ended (by re-irrigating and transfer to a greenhouse with good growth conditions) as soon as irreversible damage was observed on the stressed control plants. The end of the stress phase was followed by an about 4-7-day recovery phase, during which the plants were once again kept under good growth conditions in a greenhouse. The duration of the recovery phase was guided mainly by when the trial plants had attained a state which enabled visual scoring of potential effects, and was therefore variable. Once this juncture had been reached, the appearance of the plants treated with test substances was recorded in comparison to the stressed control plants by the following categories: [table] For each substance and dosage, 3-4 pots were treated and evaluated. […] BRSNS=Brassica napus TRZAS=Triticum aestivum

Triticum aestivum [3] = test: Drought stress test on wheat Part D, reduction in damage intensity from fresh weights; type: in vivo; conditions: efficacy = reduction in damage intensity (fresh weight) under drought stress, 250 g/ha, at least three repeats
Excerpt: Wheat grains were sown in a standardized number in sandy loam soil plastic pots, covered with soil or sand and grown in a greenhouse under good growth conditions. Pots with uneven degrees of emergence were excluded prior to the start of the trial. The treatment with test substances was effected at the early leaf stage (BBCH10-BBCH13). To assure uniform water supply, the potted plants were supplied with water by dam irrigation prior to substance application. The inventive compounds were first formulated as wettable powders (WP) or dissolved in a solvent mixture. The further dilution was effected with water supplemented with 0.2% wetting agent (e.g. agrotin). The finished spray liquor was sprayed onto the green parts of the plant at an equivalent water application rate of 600 l/ha. Substance application was followed immediately by stress treatment of the plants. Drought stress was induced by gradual drying out under the following conditions: “Day”: 14 hours with illumination at 26-30° C. “Night”: 10 hours without illumination at 18-20° C. The duration of the respective stress phases was guided mainly by the condition of the stressed control plants. It was ended (by re-irrigating and transfer to a greenhouse with good growth conditions) as soon as irreversible damage was observed on the stressed control plants. The end of the stress phase was followed by an about 7-day recovery phase, during which the plants were once again kept under good growth conditions in a greenhouse. The exact duration of the recovery phase was variable for reasons related to the trial. At the end of the recovery phase, the fresh weights of the plant parts above ground were determined. By comparison with unstressed control plants which were kept under good growth conditions over the entire duration of the trial, percentage damage intensities were first calculated from the fresh weight values. The reduction in damage intensity resulting from treatment with test substance was then calculated by the following formula: [formula] EF: Efficacy DIs: Damage intensity of the stressed control plants DIt: Damage intensity of the stressed plants treated with test compound The values reported in table D-1 below are results from at least three repeats. BRSNS=Brassica napus TRZAS=Triticum aestivum

Triticum aestivum [4] = test: Drought stress greenhouse test Part B, visual scoring vs stressed control plants; type: in vivo; conditions: spray application 250 g/ha, efficacy range of 2-3 pots
Description: as §1, §2, §3
“Day”: 14 hours with illumination at 26-30° C. “Night”: 10 hours without illumination at 18-20° C.
as §4
as §5, with “and is” for “and was”
as §6
For each substance and dosage, 2-3 pots were treated and evaluated.
as §7

[5] = target: T1, phosphatase ABI1 via the co-regulator RCAR11/PYR1 (Arabidopsis thaliana, UniProt O49686+P49597); test: In vitro inhibition of the phosphatase ABI1 via the co-regulator RCAR11/PYR1, MUP dephosphorylation; type: biochemical; design: dose or concentration left out as unconfirmed; conditions: in a solution of DMSO and water; fluorescence at 460 nm
T1 sequence (O49686 1-191): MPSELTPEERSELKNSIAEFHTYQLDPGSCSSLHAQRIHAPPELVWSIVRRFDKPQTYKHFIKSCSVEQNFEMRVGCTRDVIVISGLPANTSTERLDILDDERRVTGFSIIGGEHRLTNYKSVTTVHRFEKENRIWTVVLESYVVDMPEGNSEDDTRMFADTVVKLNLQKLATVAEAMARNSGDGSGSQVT
T1 sequence (P49597 1-434): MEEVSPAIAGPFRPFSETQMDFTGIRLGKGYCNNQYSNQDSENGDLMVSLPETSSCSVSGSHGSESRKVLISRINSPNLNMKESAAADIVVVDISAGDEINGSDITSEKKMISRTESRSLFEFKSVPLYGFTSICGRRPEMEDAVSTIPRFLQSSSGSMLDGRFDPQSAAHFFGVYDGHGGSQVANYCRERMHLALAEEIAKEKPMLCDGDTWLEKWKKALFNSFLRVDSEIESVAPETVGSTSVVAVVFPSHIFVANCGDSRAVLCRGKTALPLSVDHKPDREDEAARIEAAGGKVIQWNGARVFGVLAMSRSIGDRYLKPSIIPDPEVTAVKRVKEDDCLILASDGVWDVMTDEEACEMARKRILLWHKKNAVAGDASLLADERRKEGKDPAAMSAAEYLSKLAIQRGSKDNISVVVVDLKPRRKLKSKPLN
Outline: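 Arabidopsis ABI1 (0.15 μg/well) with RCAR11/PYR1 (0.30 μg/well) in Tris-HCl pH 8, NaCl, MnCl2, DTT, Tween20; MUP substrate, 20 min at 35 °C, fluorescence ex 340/em 460 nm. Compounds tested at 5 mM in DMSO/water, optionally pre-treated with porcine liver esterase; inhibition banded ≥90/70/50/30%.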

| ABI1 inhibition [5] | Structure (SMILES) | Effect (TRZAS) (Triticum aestivum [2]; spray application 250 g/ha) | further results |
| --- | --- | --- | --- |
|  | CC1(C)CC(=O)N(CC(F)(F)F)c2ccc(NS(=O)(=O)Cc3ccc(Cl)cc3)cc21 [B2-165] |  | Effect (TRZAS) (Triticum aestivum [1]; spray application 25 g/ha): 20 |
|  | COC(=O)CCN1C(=O)CC(C)(C)c2cc(NS(=O)(=O)Cc3ccc(C)cc3)ccc21 [B51-152] | 10-20 | EF [%] (TRZAS) (Triticum aestivum [3]): 16% |
| ++++ (inhibition≧90%) | N#Cc1ccc(CS(=O)(=O)Nc2ccc3c(c2)CCC(=O)N3CC2CC2)cc1 [A19-181] |  | Effect (TRZAS) (Triticum aestivum [4]): 10-20 |
|  | CC1(C)CC(=O)N(CC(F)(F)F)c2ccc(NS(=O)(=O)CCc3ccc(Cl)cc3)cc21 [B2-291] |  | Effect (TRZAS) (Triticum aestivum [1]; spray application 25 g/ha): 20; Effect (TRZAS) (Triticum aestivum [1]; spray application 250 g/ha): 30 |
| ++++ (inhibition≧90%) | COCCN1C(=O)CCc2cc(NS(=O)(=O)Cc3ccc(Cl)cc3)ccc21 [A38-165] | 10-30 |  |
|  | O=C1CCc2cc(NS(=O)(=O)Cc3ccc(C(F)(F)F)cc3)ccc2N1CC12CC3CC(CC(C3)C1)C2 [A46-178] |  | Effect (TRZAS) (Triticum aestivum [2]; spray application 25 g/ha): 20-30 |
|  | CCC1(C)CC(=O)N(CC2CC2)c2ccc(NS(=O)(=O)Cc3ccc(F)cc3)cc21 (centres unmarked) [F3-158] |  | Effect (TRZAS) (Triticum aestivum [2]; spray application 25 g/ha): 10-20 |
| ++++ (inhibition≧90%) | COC(=O)CCN1C(=O)CCc2cc(NS(=O)(=O)Cc3ccc(Br)cc3)ccc21 [A51-172] | 10-20 |  |
| +++ (90%>inhibition≧70%) | COC(=O)CN1C(=O)CCc2cc(NS(=O)(=O)Cc3ccc([N+](=O)[O-])cc3)ccc21 [A50-175] |  | Effect (TRZAS) (Triticum aestivum [2]; spray application 25 g/ha): 10-20 |
| +++ (90%>inhibition≧70%) | Cc1ccc(CS(=O)(=O)Nc2ccc3c(c2)CCC(=O)N3CCSC(F)(F)F)cc1 [A42-152] |  | Effect (TRZAS) (Triticum aestivum [2]; spray application 25 g/ha): 10-20 |
|  | COC(=O)CCN1C(=O)CC(C)(C)c2cc(NS(=O)(=O)Cc3ccc(Br)cc3)ccc21 [B51-172] |  | Effect (TRZAS) (Triticum aestivum [2]; spray application 25 g/ha): 10-20 |
| ++++ (inhibition≧90%) | Cc1ccc(CS(=O)(=O)Nc2ccc3c(c2)CCC(=O)N3CC2CC2)cc1F [A19-357, N-[1-(Cyclopropylmethyl)-2-oxo-1,2,3,4-tetrahydroquinolin-6-yl]-1-(3-fluoro-4-methylphenyl)methanesulfonamide] |  | Effect (TRZAS) (Triticum aestivum [4]): 10-20 |
| +++ (90%>inhibition≧70%) | O=C1CCc2cc(NS(=O)(=O)Cc3ccc(F)cc3)ccc2N1CC(F)F [A1-158] |  | Effect (TRZAS) (Triticum aestivum [4]): 10-20 |
|  | COC(=O)CN1C(=O)CC(C)(C)c2cc(NS(=O)(=O)Cc3ccc(Cl)cc3)ccc21 [B50-165] | 10-20 |  |
|  | CCC1(C)CC(=O)N(CCOC)c2ccc(NS(=O)(=O)Cc3ccccc3)cc21 (centres unmarked) [F7-151] |  | Effect (TRZAS) (Triticum aestivum [2]; spray application 25 g/ha): 10-20 |
|  | CCOC(=O)CCN1C(=O)CC(C)(C)c2cc(NS(=O)(=O)Cc3ccc(C#N)cc3)ccc21 [B52-181] | 10-20 | EF [%] (TRZAS) (Triticum aestivum [3]): 14% |
|  | COC(=O)CN1C(=O)CCc2cc(NS(=O)(=O)Cc3cccc(C#N)c3)ccc21 [A50-182] | 10-20 |  |
|  | CC1(C)CC(=O)N(CC(F)(F)F)c2ccc(NS(=O)(=O)c3ccc(C#N)cc3)cc21 [B2-45] |  | Effect (TRZAS) (Triticum aestivum [1]; spray application 25 g/ha): 20 |
|  | CCC1(C)CC(=O)N(CCOC)c2ccc(NS(=O)(=O)Cc3ccc(F)cc3)cc21 (centres unmarked) [F7-158] | 10-20 |  |
|  | COC(=O)CN1C(=O)CCc2cc(NS(=O)(=O)Cc3cccc(Br)c3)ccc21 [A50-173] |  | Effect (TRZAS) (Triticum aestivum [2]; spray application 25 g/ha): 10-20 |
|  | CCC1(C)CC(=O)N(CCOC)c2ccc(NS(=O)(=O)Cc3cccc(Cl)c3)cc21 (centres unmarked) [F7-166] | 10-20 |  |
| ++++ (inhibition≧90%) | COC(=O)CN1C(=O)CCc2cc(NS(=O)(=O)Cc3ccc(C)cc3)ccc21 [A50-152] | 10-20 |  |
|  | COCCN1C(=O)CC2(CCCCC2)c2cc(NS(=O)(=O)Cc3ccc(C(F)(F)F)cc3)ccc21 [I5-178] | 10-30 |  |
|  | CCC1(C)CC(=O)N(CC2CC2)c2ccc(NS(=O)(=O)Cc3cccc(Cl)c3)cc21 (centres unmarked) [F3-166] | 10-20 |  |
| ++ (70%>inhibition≧50%) | N#Cc1cccc(CS(=O)(=O)Nc2ccc3c(c2)CCC(=O)N3CC2CC2)c1 [A19-182] |  | Effect (TRZAS) (Triticum aestivum [1]; spray application 25 g/ha): 20; Effect (TRZAS) (Triticum aestivum [1]; spray application 250 g/ha): 20-30 |
| ++++ (inhibition≧90%) | Cc1ccc(CS(=O)(=O)Nc2ccc3c(c2)CCC(=O)N3CC2CC2)cc1 [A19-152] |  | Effect (TRZAS) (Triticum aestivum [1]; spray application 25 g/ha): 20 |
|  | COCCN1C(=O)CC2(CCCCC2)c2cc(NS(=O)(=O)Cc3cccc(Cl)c3)ccc21 [I5-166] | 10-20 |  |
